# Data: patent publication US20120065228A1, “COMPOSITIONS AND METHODS FOR TREATING, CONTROLLING, REDUCING, OR AMELIORATING OCULAR INFLAMMATORY WITH LOWER RISK OF INCREASED INTRAOCULAR PRESSURE” (priority 2007, published 2012)
# Values joined by “and” are separate entries in the source; they are usually repeats but may differ in a detail not shown here. Identical values can stand only once. Like-named read-outs stand apart in the source and are kept apart here.
# How the values were obtained:
# Type in all cases: in vivo
# Myeloperoxidase (MPO) = Myeloperoxidase (MPO) activity in iris-ciliary body, rabbit paracentesis model; conditions: for MPO Unit/g: iris-ciliary body samples collected after the second paracentesis, individual eyes (DX/SX); for MPO activity in iris-ciliary body, Mean: after the second paracentesis
# Procedure: (§1) Each rabbit was placed in a restraint device and tagged with the alphanumeric code. The formulations were instilled (50 μl) into the conjunctival sac of both eyes 180, 120, 90 and 30 min before the first paracentesis; then 15, 30, 90 min after the first paracentesis. To perform the first paracentesis the animals were anaesthetized by intravenous injection of 5 mg/kg Zoletil® (Virbac; 2.5 mg/kg tiletamine HCl and 2.5 mg/kg zolazepam HCl) and one drop of local anesthetic (Novesina®, Novartis) was administered to the eye. Anterior chamber paracentesis was performed with a 26 G needle attached to a tuberculin syringe; the needle was introduced into the anterior chamber through the cornea, taking care not to damage the tissues. Two hours after the ® first paracentesis, the animals were sacrificed with 0.4 ml Tanax® (Intervet International B.V.) and the second paracentesis was performed. About 100 μl of aqueous humor were removed at the second paracentesis. Aqueous humor was immediately split in four aliquots and stored at −80° C. until analysis. Then both eyes were enucleated and the iris-ciliary body was carefully excised, placed in polypropylene tubes, and stored at −80° C. until analysis.
# The activity of MPO was measured as previously described by Williams et al. The iris-ciliary bodies were carefully dried, weighed and immersed in 1 ml of hexa-decyl-trimethyl-ammonium bromide solution. Then, the samples were sonicated for 10 sec on ice by a ultrasound homogenizer (HD 2070, Bandelin electronic), freeze-thawed three times, sonicated for 10 sec and centrifuged at 14,000 g for 10 min to remove cellular debris. An aliquot of the supernatant (40-200 μl) was diluted to 3 ml with the o-dianisidine 2HCl/H2O2 solution. The change in absorbance at 460 nm was continuously monitored for 5 min by a spectrophotometer (UV/Vis Spectrometer Lambda EZ 201; Perkin Elmer). The slope of the line (Δ/min) was determined for each sample and used to calculate the number of units of MPO in the tissue as follows:
# were ε=11.3 mM^−1. Values were expressed as units of MPO/g of tissue.
# (§2) Pupillary diameter, PGE2, protein, PMN, and MPO were expressed as mean±SEM. Statistical analysis was performed using one way ANOVA followed by a Newman-Keuls post hoc test. Clinical score was expressed as % of eyes and the statistical analysis was performed using Kruskal-Wallis followed by a Dunn post hoc test. P<0.05 was considered statistically significant in both cases. Prism 4 software (GraphPad Software, Inc.) was used for the analysis and graphs.
# [1] = test system: New Zealand White rabbits; conditions: for Rabbits that died or were euthanized between Days 11 and 33: right eye four times daily, Days 1-31; for Mortality (animals found dead or euthanized prior to study completion/number of animals in group): 50 μL topical right eye 4 x daily, to Day 33; for Mortality rate: right eye four times daily up to 31 days, dexamethasone 0.05 mg/dose, BOL-303242-X per dose level (0.05, 0.25, 0.5 mg/dose)
# Procedure: On Days 1-31, animals received daily topical doses of the appropriate test article into the right eye. Animals were dosed four times per day, with doses administered 2 hours apart. Doses were administered using a calibrated 50-μL pipette. The eyelids were held close for 10 seconds immediately following dosing. The time of each dose administration was recorded.
# Animals determined to be moribund were euthanized with an intravenous injection of commercial euthanasia solution.
# leukocytes (PMN) = experiment: Leukocytes (PMN) measurement in aqueous humor, rabbit paracentesis model; conditions: second paracentesis; for PMN in aqueous humor: individual eyes
# Procedure: as §1
# For the determination of the number of leukocytes we used a haemocytometer (Improved Neubauer Chamber; Bright-line. Hausser Scientific) and a Polyvar 2 microscope (Reichert-Jung).
# as §2
# rabbit eye = experiment: Clinical evaluation by slit lamp (clinical score), rabbit paracentesis model; set-up: key to Clinical Score −180 min / Clinical Score −5 min / Clinical Score +115 min: 0: normal; 1: discrete dilatation of iris and conjunctival vessels; 2: moderate dilatation of iris and conjunctival vessels; 3: intense iridal hyperemia with flare in the anterior chamber; 4: intense iridal hyperemia with flare in the anterior chamber and presence of fibrinous exudates; conditions: for Clinical Score −5 min: 5 min before the first paracentesis; for Clinical Score −5 min / Clinical Score +115 min / Clinical Score −180 min: individual eyes; for Clinical Score +115 min: 5 min before the second paracentesis; for Clinical score as percentage of eyes, Score (%) 2 / Clinical score as percentage of eyes, Score (%) 3 / Clinical score as percentage of eyes, Score (%) 0 / Clinical score as percentage of eyes, Score (%) 1: 8 eyes; for Clinical Score −180 min: basal
# [2] = test system: protein concentration in the aqueous humor; experiment: Protein measurement in aqueous humor, rabbit paracentesis model; conditions: for Protein in aqueous humor, Mean / Protein in aqueous humor: second paracentesis; for Protein in aqueous humor: individual eyes
# Procedure: as §1
# For protein concentration determination in the aqueous humor we used the Protein Quantification Kit (Fluka; Cat. No. 77371; Lot. No. 1303129). Five microliters of aqueous humor were diluted to 100 μl with water. Twenty microliters of samples and of standards were load into a 96-well plate and recorded in a plate layout. Samples were treated following the assay procedure described in the kit. A microplate reader (GDV, Italy; model DV 990 B/V6) set at 670 nm was used for making the calibration and analyzing the samples.
# as §2
# [3] = 0.05 mg/dose (0.1% dexamethasone suspension; 1 mg/g BOL-303242-X suspension)
# [4] = 0.1% topical formulation, listed as BOL
# [5] = 0.5% topical formulation, listed as BOL
# [6] = 1% topical formulation, listed as BOL
# [7] = 0.1% topical formulation, +115 min
# [8] = 0.1% topical formulation, −5 min
# [9] = 0.1% topical formulation, −180 min (basal)
# [10] = 0.5% topical formulation, +115 min
# [11] = 0.1% topical formulation, listed as Dex
compound,measurement,setting,value
Cc1ccc2c(NCC(O)(CC(C)(C)c3cc(F)cc4c3OCC4)C(F)(F)F)cccc2n1 (stereo not shown) [BOL-303242-X],MPO Unit/g,"Myeloperoxidase (MPO); 0.1% BOL, listed as BOL",1.04 Unit/g and 1.00 Unit/g and 1.14 Unit/g and 1.06 Unit/g and 1.22 Unit/g and 0.61 Unit/g and 1.05 Unit/g and 0.65 Unit/g
same,"MPO activity in iris-ciliary body, Mean",Myeloperoxidase (MPO); 0.1% topical formulation,0.971 MPO Unit/g
same,MPO Unit/g,"Myeloperoxidase (MPO); 0.5% BOL, listed as BOL",0.85 Unit/g and 0.93 Unit/g and 0.79 Unit/g and 1.03 Unit/g and 0.75 Unit/g and 0.74 Unit/g and 0.54 Unit/g and 0.58 Unit/g
same,"MPO activity in iris-ciliary body, Mean",Myeloperoxidase (MPO); 0.5% topical formulation,0.775 MPO Unit/g
same,MPO Unit/g,"Myeloperoxidase (MPO); 1% BOL, listed as BOL",0.66 Unit/g and 0.68 Unit/g and 0.49 Unit/g and 0.40 Unit/g and 0.34 Unit/g and 1.02 Unit/g and 0.31 Unit/g and 0.43 Unit/g
same,"MPO activity in iris-ciliary body, Mean",Myeloperoxidase (MPO); 1% topical formulation,0.542 MPO Unit/g
same,Rabbits that died or were euthanized between Days 11 and 33,[1]; [3],one of ten
same,Mortality (animals found dead or euthanized prior to study completion/number of animals in group),"[1]; 1 mg/g, 0.05 mg/dose",1/10^(6)
same,Day of Death (day euthanized or found dead),"[1]; 5 mg/g BOL-303242-X ([…]) topical 4 x daily, individual rabbits, Group C",33
same,Rabbits that died or were euthanized between Days 11 and 33,[1]; 5 mg/g suspension ([…]),two of ten
same,Mortality (animals found dead or euthanized prior to study completion/number of animals in group),"[1]; 5 mg/g, […]",2/10^(5)
same,Day of Death (day euthanized or found dead),"[1]; 10 mg/g BOL-303242-X (0.5 mg/dose) topical 4 x daily, individual rabbit, Group B",11
same,Rabbits that died or were euthanized between Days 11 and 33,[1]; 10 mg/g suspension (0.5 mg/dose),one of ten
same,Morbidity observation in surviving rabbits,"[1]; 10 mg/g suspension (0.5 mg/dose), one surviving rabbit (Group B, No. 3048)",diarrhea on Day 18
same,Mortality (animals found dead or euthanized prior to study completion/number of animals in group),"[1]; 10 mg/g, 0.5 mg/dose",1/10^(4)
same,Mortality rate,[1],1-2 deaths per 10 rabbits
same,"PMN in aqueous humor, Mean",leukocytes (PMN); 0.1% topical formulation,28.333 number/μl
same,PMN in aqueous humor,leukocytes (PMN); [4],20 number/μl (4×) and 40 number/μl and 50 number/μl
same,"PMN in aqueous humor, Mean",leukocytes (PMN); 0.5% topical formulation,21.250 number/μl
same,PMN in aqueous humor,leukocytes (PMN); [5],40 number/μl (2×) and 20 number/μl (3×) and 10 number/μl (3×)
same,"PMN in aqueous humor, Mean",leukocytes (PMN); 1% topical formulation,28.750 number/μl
same,PMN in aqueous humor,leukocytes (PMN); [6],30 number/μl (3×) and 20 number/μl (3×) and 40 number/μl (2×)
same,Clinical Score −5 min,rabbit eye; 0.1% topical formulation,0
same,Clinical Score +115 min,rabbit eye; [4],2 (6×) and 3 (2×)
same,"Clinical score as percentage of eyes, Score (%) 2",rabbit eye; [7],75%
same,"Clinical score as percentage of eyes, Score (%) 3",rabbit eye; [7],25%
same,Clinical Score −180 min,rabbit eye; 0.1% topical formulation,0
same,"Clinical score as percentage of eyes, Score (%) 0",rabbit eye; [8],100%
same,"Clinical score as percentage of eyes, Score (%) 0",rabbit eye; [9],100%
same,Clinical Score −5 min,rabbit eye; 0.5% topical formulation,0
same,Clinical Score +115 min,rabbit eye; [5],2 (5×) and 1 (3×)
same,"Clinical score as percentage of eyes, Score (%) 1",rabbit eye; [10],37.5%
same,"Clinical score as percentage of eyes, Score (%) 2",rabbit eye; [10],62.5%
same,Clinical Score −180 min,rabbit eye; 0.5% topical formulation,0
same,"Clinical score as percentage of eyes, Score (%) 0","rabbit eye; 0.5% topical formulation, −5 min",100%
same,"Clinical score as percentage of eyes, Score (%) 0","rabbit eye; 0.5% topical formulation, −180 min (basal)",100%
same,Clinical Score −5 min,rabbit eye; 1% topical formulation,0
same,Clinical Score +115 min,rabbit eye; 1% topical formulation,2
same,"Clinical score as percentage of eyes, Score (%) 2","rabbit eye; 1% topical formulation, +115 min",100%
same,Clinical Score −180 min,rabbit eye; 1% topical formulation,0
same,"Clinical score as percentage of eyes, Score (%) 0","rabbit eye; 1% topical formulation, −5 min",100%
same,"Clinical score as percentage of eyes, Score (%) 0","rabbit eye; 1% topical formulation, −180 min (basal)",100%
same,"Protein in aqueous humor, Mean",[2]; 0.1% topical formulation,33.667 mg/mL
same,Protein in aqueous humor,[2]; [4],34.87 mg/mL and 34.41 mg/mL and 31.14 mg/mL and 22.82 mg/mL and 29.46 mg/mL and 31.69 mg/mL and 35.70 mg/mL and 49.25 mg/mL
same,"Protein in aqueous humor, statistical significance vs CTR","[2]; 0.5% topical formulation, p<0.05",statistical significance
same,"Protein in aqueous humor, Mean",[2]; 0.5% topical formulation,28.844 mg/mL
same,Protein in aqueous humor,[2]; [5],33.98 mg/mL and 33.65 mg/mL and 19.99 mg/mL and 27.11 mg/mL and 19.72 mg/mL and 36.35 mg/mL and 27.71 mg/mL and 32.24 mg/mL
same,"Protein in aqueous humor, statistical significance vs CTR","[2]; 1% topical formulation, p<0.001",statistical significance
same,"Protein in aqueous humor, Mean",[2]; 1% topical formulation,21.435 mg/mL
same,Protein in aqueous humor,[2]; [6],20.99 mg/mL and 21.48 mg/mL and 15.11 mg/mL and 20.28 mg/mL and 20.94 mg/mL and 21.89 mg/mL and 20.03 mg/mL and 30.76 mg/mL
"C[C@@H]1C[C@H]2[C@@H]3CCC4=CC(=O)C=C[C@]4(C)[C@@]3(F)[C@@H](O)C[C@]2(C)[C@@]1(O)C(=O)CO [dexamethasone, reference compound]",MPO Unit/g,"Myeloperoxidase (MPO); 0.1% Dex, listed as Dex",0.71 Unit/g and 0.60 Unit/g and 1.32 Unit/g and 0.48 Unit/g (2×) and 0.39 Unit/g and 0.45 Unit/g and 0.51 Unit/g
same,"MPO activity in iris-ciliary body, Mean",Myeloperoxidase (MPO); 0.1% topical formulation,0.618 MPO Unit/g
same,Rabbits that died or were euthanized between Days 11 and 33,[1]; [3],Six of ten
same,Mortality (animals found dead or euthanized prior to study completion/number of animals in group),"[1]; 0.1% Dexamethasone (Maxidex), 0.05 mg/dose",6/10^(3)
same,Mortality rate,[1],6 deaths per 10 rabbits
same,"PMN in aqueous humor, Mean",leukocytes (PMN); 0.1% topical formulation,30.000 number/μl
same,PMN in aqueous humor,leukocytes (PMN); [11],20 number/μl (3×) and 50 number/μl and 40 number/μl and 30 number/μl
same,Clinical Score −5 min,rabbit eye; [11],0 (6×) and 1 (2×)
same,Clinical Score +115 min,rabbit eye; [11],1 (6×) and 3 (2×)
same,"Clinical score as percentage of eyes, Score (%) 1",rabbit eye; [7],75%
same,"Clinical score as percentage of eyes, Score (%) 3",rabbit eye; [7],25%
same,Clinical Score −180 min,rabbit eye; 0.1% topical formulation,0
same,"Clinical score as percentage of eyes, Score (%) 0",rabbit eye; [8],75%
same,"Clinical score as percentage of eyes, Score (%) 1",rabbit eye; [8],25%
same,"Clinical score as percentage of eyes, Score (%) 0",rabbit eye; [9],100%
same,"Protein in aqueous humor, Mean",[2]; 0.1% topical formulation,33.457 mg/mL
same,Protein in aqueous humor,[2]; [11],31.31 mg/mL and 31.81 mg/mL and 35.95 mg/mL and 37.15 mg/mL and 32.12 mg/mL and 32.40 mg/mL
